The values below come from US20250066323A1, “INHIBITORS OF HUMAN RESPIRATORY SYNCYTIAL VIRUS AND METAPNEUMOVIRUS” (priority 2023, published 2025).

Structures are written as SMILES. Like-named read-outs stand apart in the source and are kept apart here.

The subject of one experiment is hMPV-GFP. In words: hMPV-GFP viral replication assay. It is filed as cell-based, human metapneumovirus. Conditions: read-out: hMPV EC50. How it is done: GFP expressing rgHMPV #3 p3 was generated in Dr. Buchholz's lab (Biacchesi S. et al., J Virol. 2007 June; 81(11): 6057-6067.) and propagated in VERO cells (kidney tissue derived from a normal, adult African green monkey. ATCC Cat #CCL-81) with infection Multiplicity of Infection (MOI) of 0.1. Virus was harvested 4 days after infection by collecting all culture material and freeze-thaw the viral culture in liquid nitrogen twice. To generating virus working stocks, thaw frozen samples in 37° C. water bath then centrifuge at 218 g for 15 min at 4° C. Add 1/10 of 10×SPG (Biological Industries 06-3061-01-5A), mix, aliquot supernatant, and quick-freeze in liquid nitrogen then transfer to −80° C. freezer for storage. Virus titer was determined by performing titration test in 96-well plates and calculate approximate virus titer using GFP event/well data.
Compound plates were prepared by dispensing compounds dissolved in DMSO into wells of 384 well coming 3985 polystyrene flat clear bottom optical imaging microplates (202.5 nL/well) using an ECHO acoustic dispenser. Each compound was tested in a 10-point serial 3-fold dilution (typical final concentrations: 40,300 nM-2 nM). […] Continuous culture of VERO cells were maintained in complete culture media (OptiMEM supplemented with 2 mM GlutaMAX™ and 100 U/ml Penicillin-Streptomycin). To set up the assay, trypsinize VERO cells with 0.25% Trypsin-EDTA until cells dislodge, then re-suspend cells with 1 mL FBS. Spin down cells at 300 g for 5 min and wash cells twice in culture media, then count cells using default parameters on ViCell. Cells were then diluted to 100,000 cells/ml (5,000 cells/50 μl) in complete culture media+TrypLE Select (80 μl/ml). Add hMPV-GFP virus to cells at 125,000 pfu/ml (MOI=1.25). Mix by gentle inversion. 10 μl/well of 100% DMSO was dispensed to CellTiter-Glo (CTG) assay Max_E controls wells. Dispense cells at 50 μl/well using Bravo and 50 μl filtered tips into compound plates. Cover plates with MicroClime lids loaded with 7.5 ml of assay media to minimize evaporation. Lightly shake plate for 10 minutes at room temperature then incubate at 37 degrees C. and 5% CO2 for 48 hrs. Following incubation, distinct, GFP-expressing cells are counted using an Acumen imaging system with appropriate settings. A same-well CTG assay is performed by adding 10 μl/well reconstituted CellTiter-Glo reagent (Promega G7573) and reading plates on PerkinElmer Envision according to manufacturer's instructions. Raw data were loaded and analyzed in ActivityBase. Antiviral IC50 and cytotoxicity CC50 values were determined using a 4 parameter logistic fit based on the Levenberg-Marquardt algorithm. Model: 205-4 Parameter Logistic.

The subject of a further experiment is RSV-A2-GFP. In words: RSV-A2-GFP viral replication assay. In kind it is cell-based, Human Respiratory Syncytial Virus. From the text:
GFP sequence was derived from pJTI™ R4 Dest CMV N-EmGFP pA Vector (Invitrogen) and was cloned into the intergenic sequence between wild-type RSV-A2 P and M genes using standard recombineering techniques. Recombinant RSV-A2-GFP was propagated in Hep2 cells (human cells contains HeLa marker chromosomes and were derived via HeLa contamination, ATCC CCL-23) with infection Multiplicity of Infection (MOI) of 0.1. Virus was harvested 3 days after infection by collecting all culture material and freeze-thaw the viral culture in liquid nitrogen for at least 5 times. To generating virus working stocks, thaw frozen samples in 37° C. water bath then centrifuge at 218 g for 15 min at 4° C. Add 1/10 of 10×SPG (Biological Industries 06-3061-01-5A), mix, aliquot supernatant, and quick-freeze in liquid nitrogen then transfer to −80° C. freezer for storage. Virus titer was determined by automated plaque assay in HEp-2 cells following methods described previously (Wen Z. et al.; J Virol Methods. 2019 January; 263:88-95).
Calu-1 cells (human lung epidermoid carcinoma, ATCC HTB-54) assay ready freezedown (ARF generation described separately) were used in assays. Compound plates were prepared by dispensing compounds dissolved in DMSO into wells of 384 well coming 3985 polystyrene flat clear bottom optical imaging microplates (202.5 nL/well) using an ECHO acoustic dispenser. Each compound was tested in a 10-point serial 3-fold dilution (typical final concentrations: 403 nM-0.02 nM and 40.3 nM-0.002 nM). […] To set up the assay, thaw ARF vial(s) in 37° C. water bath until small ice crystal remain and resuspend into assay media (DMEM containing 2% FBS, 100 U/ml Penicillin-Streptomycin). Count cells using default parameters on ViCell and dilute to 20,000 cells per ml in assay media. Add RSV GFP to cells at 24,000 pfu/ml (MOI=1.2). Mix by gentle inversion. 10 μl/well of 100% DMSO was dispensed to CellTiter-Glo (CTG) assay Max_E controls wells. Dispense cells at 50 μl/well using Bravo and 50 μl filtered tips into compound plates. Cover plates with MicroClime lids loaded with 7.5 ml of assay media to minimize evaporation. Incubate at 37 degrees C. and 5% CO2 for 96 hrs. Following incubation, distinct, GFP-expressing cells are counted using an Acumen imaging system with appropriate settings. A same-well CTG assay is performed by adding 10 μl/well reconstituted CellTiter-Glo reagent (Promega G7573) and reading plates on PerkinElmer Envision according to manufacturer's instructions. Raw data were loaded and analyzed in ActivityBase. Antiviral IC50 and cytotoxicity CC50 values were determined using a 4 parameter logistic fit based on the Levenberg-Marquardt algorithm. Model: 205-4 Parameter Logistic.
Calu-1 cells were purchased from ATCC (Cat #HTB-54) and are expanded in growth media (DMEM containing 10% FBS, 100 U/ml Penicillin-Streptomycin). To make ARF, remove and discard cell culture media, briefly rinse the cell layer with PBS to remove all traces of serum. Add 2.5 ml of TrypLE Express solution and incubate until cells dislodge, then add growth media and resuspend the cells by gentle pipetting. Count cells for concentration and determine viability using a ViCell. Centrifuge at RT, 300 g for 5 min to pellet cells. Gently aspirate supernatant, flick pellet to loosen cells. Resuspend cells in an appropriate volume of freezing medium (DMEM containing 10% DMSO, 10% FBS, 100 U/ml Penicillin-Streptomycin) to achieve 5×10^6/ml. Transfer 1 ml of cell suspension to freezing vials. Put vials to CoolCell cryopreservation container and place CoolCell container upright in a −80° C. freezer overnight before transferring vials to liquid nitrogen vapor for storage.

The mark [1] stands for this setting: human metapneumovirus, Vero, 48 h.
Where [2] appears, read: human respiratory syncytial virus, Calu-1, 96 h, read-out: RSV EC50, Calu-1 cells, RSV-A2-GFP MOI=1.2, 96 hrs, GFP-expressing cells counted.
Setting [3] is: VERO cells, hMPV-GFP MOI=1.25, 48 hrs, GFP-expressing cells counted.
The mark [4] stands for this setting: read-out: RSV EC50, Calu-1 cells, RSV-A2-GFP MOI=1.2, 96 hrs, GFP-expressing cells counted.

As to `CC(C)(N)c1cc(-c2ccc(F)cc2)nc(C(C)(O)CNC(=O)c2cc(-c3cscn3)ns2)c1` (single isomer, unassigned) [Example 09-B], the EC50 in the experiment with hMPV-GFP (setting [1]) was over 100 nM; in the experiment on RSV-A2-GFP (setting [2]), under 10 nM.

Consider `CC(C)(N)c1cc(-c2ccc(F)cc2)nc(C(C)(O)CNC(=O)c2cc(-c3ncccn3)ns2)c1` (single isomer, unassigned) [Example 10-B], for which the 50% effective concentration (EC50) with hMPV-GFP (setting [1]) was over 100 nM; in the experiment with RSV-A2-GFP (setting [2]) it was under 10 nM.

In the case of `COc1nn(-c2ncccn2)cc1C(=O)NCC(C)(O)c1cc(C(C)(C)N)cc(-c2ccc(F)cc2)n1` (single isomer, unassigned) [Example 11-B], the EC50 in the experiment on hMPV-GFP (setting [1]) is over 100 nM; in the experiment with RSV-A2-GFP (setting [2]), under 10 nM.

`Cn1nc(-c2cscn2)cc1C(=O)NCC(C)(O)c1cc(C(C)(C)N)cc(-n2ccc3c(F)cccc32)n1` (single isomer, unassigned) [Example 12-B]: the EC50 with hMPV-GFP (setting [1]) is over 100 nM; in the experiment with RSV-A2-GFP (setting [2]), under 10 nM.

As for `Cn1nc(-c2cscn2)cc1C(=O)NCC(C)(O)c1cc(C(C)(C)N)cc(-c2ccc(Cl)cc2)n1` (single isomer, unassigned) [Example 13-B], the results for the half-maximal effective concentration (EC50) with hMPV-GFP (setting [1]) and with RSV-A2-GFP (setting [2]) were over 100 nM and under 10 nM, respectively.

Consider `Cc1ccc(-c2cc(C(C)(C)N)cc(C(C)(O)CNC(=O)c3cc(-c4cscn4)nn3C)n2)cc1` (single isomer, unassigned) [Example 14-B], for which the EC50 in the experiment on hMPV-GFP (setting [1]) was over 100 nM; in the experiment with RSV-A2-GFP (setting [2]), under 10 nM.

Consider `Cn1nc(-c2cscn2)cc1C(=O)NCC(C)(O)c1cc(C(C)(C)N)cc(-c2ccc(F)c(F)c2)n1` (single isomer, unassigned) [Example 15-B], for which the half-maximal effective concentration (EC50) with hMPV-GFP (setting [1]) was over 100 nM; with RSV-A2-GFP (setting [2]), under 10 nM.

For the compound `Cn1nc(-c2cscn2)cc1C(=O)NCC(C)(O)c1cc(C(C)(C)N)cc(-c2ccc(F)c(Cl)c2)n1` (single isomer, unassigned) [Example 16-B], the concentration giving a half-maximal response (EC50) with hMPV-GFP (setting [1]) is over 100 nM; in the experiment on RSV-A2-GFP (setting [2]) it was under 10 nM.

For the compound `Cn1nc(-c2cscn2)cc1C(=O)NCC(C)(O)c1cc(C(C)(C)N)cc(-c2ccc(Cl)c(F)c2)n1` (single isomer, unassigned) [Example 17-B], the EC50 was over 100 nM with hMPV-GFP (setting [1]) and under 10 nM in the experiment with RSV-A2-GFP (setting [2]).

As for `Cn1nc(-c2cscn2)cc1C(=O)NCC(C)(O)c1cc(C(C)(C)N)cc(-c2ccc(F)cc2F)n1` (single isomer, unassigned) [Example 18-B], the concentration giving a half-maximal response (EC50) in the experiment on hMPV-GFP (setting [1]) was over 100 nM; in the experiment on RSV-A2-GFP (setting [2]), under 10 nM.

As for `Cc1cc(F)ccc1-c1cc(C(C)(C)N)cc(C(C)(O)CNC(=O)c2cc(-c3cscn3)nn2C)n1` (single isomer, unassigned) [Example 19-B], the figures for the concentration giving a half-maximal response (EC50) in the experiment on hMPV-GFP (setting [1]) and with RSV-A2-GFP (setting [2]) were over 100 nM and under 10 nM, respectively.

As for `Cn1nc(-c2cscn2)cc1C(=O)NCC(C)(O)c1cc(C(C)(C)N)cc(-c2ccc(F)c(F)c2F)n1` (single isomer, unassigned) [Example 20-B], the EC50 in the experiment on hMPV-GFP (setting [1]) was over 100 nM; in the experiment with RSV-A2-GFP (setting [2]) it was under 10 nM.

Turning to `CCC(O)(CNC(=O)c1cc(-c2cscn2)nn1C)c1cc(C(C)(C)N)cc(-c2ccc(F)cc2)n1` (single isomer, unassigned) [Example 21-A], the results for the 50% effective concentration (EC50) in the experiment on hMPV-GFP (setting [1]) and in the experiment with RSV-A2-GFP (setting [2]) were over 100 nM and under 10 nM, respectively.

Consider `CCC(O)(CNC(=O)c1cc(-c2cscn2)nn1C)c1cc(C(C)(C)N)cc(-c2ccc(F)cc2)n1` (single isomer, unassigned) [Example 21-B], for which the EC50 in the experiment with hMPV-GFP (setting [3]) was over 100 nM; with RSV-A2-GFP (setting [4]), 10 to 100 nM.

Consider `Cc1nc(-c2ncccn2)sc1C(=O)NCC(O)(c1cc(C(C)(C)N)cc(-c2ccc(F)cc2)n1)C1CC1` (single isomer, unassigned) [Example 22-A], for which the EC50 in the experiment with hMPV-GFP (setting [1]) and in the experiment on RSV-A2-GFP (setting [4]) was over 100 nM each time.

Regarding `Cc1nc(-c2ncccn2)sc1C(=O)NCC(O)(c1cc(C(C)(C)N)cc(-c2ccc(F)cc2)n1)C1CC1` (single isomer, unassigned) [Example 22-B], the EC50 in the experiment on hMPV-GFP (setting [3]) was over 100 nM; in the experiment on RSV-A2-GFP (setting [4]), under 10 nM.

Take `Cn1nc(-c2cscn2)cc1C(=O)NCC(O)(c1cc(C(C)(C)N)cc(-c2ccc(F)cc2)n1)C1CC1` (single isomer, unassigned) [Example 23-B]: the concentration giving a half-maximal response (EC50) is over 100 nM in the experiment with hMPV-GFP (setting [1]) and under 10 nM in the experiment on RSV-A2-GFP (setting [2]).

For the compound `Cn1nc(-c2cscn2)cc1C(=O)NCC(O)(c1cc(C(C)(C)N)cc(-c2ccc(F)cc2)n1)C(F)F` (single isomer, unassigned) [Example 24-A], the values for the EC50 in the experiment on hMPV-GFP (setting [1]) and with RSV-A2-GFP (setting [2]) were over 100 nM and under 10 nM, respectively.

As to `Cn1nc(-c2cscn2)cc1C(=O)NCC(O)(c1cc(C(C)(C)N)cc(-c2ccc(F)cc2)n1)C(F)F` (single isomer, unassigned) [Example 24-B], the results for the EC50 in the experiment with hMPV-GFP (setting [3]) and in the experiment on RSV-A2-GFP (setting [4]) were over 100 nM and 10 to 100 nM, respectively.

Consider `Cc1nc(-c2ncccn2)sc1C(=O)NCC(O)(c1cc(C(C)(C)N)cc(-c2ccc(F)cc2)n1)C(F)(F)F` (single isomer, unassigned) [Example 25-A], for which the EC50 is over 100 nM in the experiment with hMPV-GFP (setting [1]) and 10 to 100 nM in the experiment on RSV-A2-GFP (setting [4]).

In the case of `Cc1nc(-c2ncccn2)sc1C(=O)NCC(O)(c1cc(C(C)(C)N)cc(-c2ccc(F)cc2)n1)C(F)(F)F` (single isomer, unassigned) [Example 25-B], the half-maximal effective concentration (EC50) in the experiment on hMPV-GFP (setting [3]) and in the experiment with RSV-A2-GFP (setting [4]) was over 100 nM in each case.

As to `Cn1nc(-c2cscn2)cc1C(=O)NCC(O)(c1cc(C(C)(C)N)cc(-c2ccc(F)cc2)n1)C(F)(F)F` (single isomer, unassigned) [Example 26-A], the EC50 with hMPV-GFP (setting [1]) is over 100 nM; in the experiment on RSV-A2-GFP (setting [2]), under 10 nM.

Turning to `Cn1nc(-c2cscn2)cc1C(=O)NCC(C)(O)c1cc(C2(C)CCNC2)cc(-c2ccc(F)cc2)n1` (single isomer, unassigned) [Example 27-A], the EC50 with hMPV-GFP (setting [1]) and in the experiment on RSV-A2-GFP (setting [4]) was over 100 nM each time.
